Data published in article PMC8037310, “Thrombin-Derived Peptides Potentiate the Activity of Gram-Positive-Specific Antibiotics against Gram-Negative Bacteria” (Molecules, 2021).
≈ marks a conversion by molar mass, not a printed value. Read-outs that look alike come from different tables or passages of the source. Peptide text beside a SMILES is read from it.

Tests used:
Assay type in all cases: cell-based, Escherichia coli
[1] = test system: E. coli EQASmcr-3 (EQAS 2017 2013-SQ352); conditions: for MICpeptide: peptide alone; for MICpeptide / MSCpeptide / MSCrif: E. coli EQASmcr-3; for MSCpeptide: peptide concentration in the combination with rifampicin giving the lowest FICi; for MSCrif: rifampicin concentration in the combination giving the lowest FICi
[2] = test system: E. coli BW25113; conditions: for FICi: BW25113, 20 h; for MICpep: synergist alone, E. coli BW25113, from checkerboard with rifampicin; for MSCpep: synergist concentration in the combination with rifampicin giving the lowest FICi
[3] = test system: E. coli mcr-1; conditions: for MICpeptide: peptide alone; for MICpeptide / MSCpeptide / MSCrif: E. coli mcr-1; for MSCpeptide: peptide concentration in the combination with rifampicin giving the lowest FICi; for MSCrif: rifampicin concentration in the combination giving the lowest FICi; for FICi: with rifampicin vs E. coli mcr-1
Procedure, shortened: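 Checkerboard of peptide serial dilutions against rifampicin concentrations in triplicate, in LB with 1.0 × 10^6 CFU/mL final inoculum after mixing the 2.0 × 10^6 CFU/mL stock 1:1, 20 h at 37 °C shaking. OD600 read; FICi = MSCa/MICa + MSCb/MICb, ≤0.5 taken as synergy.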

[4] = test system: E. coli EQASmcr-2 (EQAS 2016 KP37); conditions: for MICpeptide: peptide alone; for MICpeptide / MSCpeptide / MSCrif: E. coli EQASmcr-2; for MSCpeptide: peptide concentration in the combination with rifampicin giving the lowest FICi; for MSCrif: rifampicin concentration in the combination giving the lowest FICi
[5] = test system: E. coli BW25113; experiment: LPS competition assay; conditions: E. coli BW25113, LB, 20 h 37 °C, visual read-out
Procedure: One colony from a blood agar plates was inoculated in Lysogeny Broth (LB) at 37 °C until a 0.5 optical density at 600 nm (OD600) was reached (compared to the sterility control of LB). The bacterial suspension was diluted in fresh LB to 2.0 × 10^6 CFU/mL. The serial dilutions were prepared in polypropylene microtiter plates: a stock of the test compounds was prepared with a 2x final concentration in LB. Moreover, 100 µL of the stock was added to the wells of the top row of which 50 µL was used for the serial dilution. The bottom row of each plate was used as the positive (50 µL of LB) and negative controls (100 µL of LB) (6 wells each). Furthermore, 50 µL of the 2.0 × 10^6 CFU/mL bacterial stock was added to each well except for the negative controls, adding up to a total volume of 100 µL per well. The plates were sealed with a breathable seal and incubated for 20 h at 37 °C and 600 rpm.
The same protocol as the MIC assay was used to prepare the serial dilution of the compounds in 96-wells plates in duplicate resulting in two identical plates. A serial dilution of colistin was taken along as a control. The inoculation and preparation of the bacteria stock was performed as described for the MIC assay. The stock of bacteria was then split into two stocks. […] The normal bacteria stock was added to the remaining plate as described in the MIC assay.

[6] = EQASmcr-3 (EQAS 2017 2013-SQ352, 20 h)
[7] = EQASmcr-2 (EQAS 2016 KP37, 20 h)

SMILES | FICi [1, 6] | MICpeptide [1] | MSCpeptide [1] | MSCrif [1] | FICi [2] | MICpep [2] | MSCpep ([2]; E. coli BW25113) | MICpeptide [3] | MSCpeptide [3] | MSCrif [3] | FICi [3] | FICi [4, 7] | MICpeptide [4] | MSCpeptide [4] | MSCrif [4] | MIC + 1.0 mg/ml LPS ([5]; in the presence of 1 mg/mL LPS) | MIC ([5]; without LPS) | MSCrif ([2]; rifampicin concentration in the combination giving the lowest FICi, E. coli BW25113) | FICi ([1]; with rifampicin vs E. coli EQASmcr-3) | FICi ([4]; with rifampicin vs E. coli EQASmcr-2)
CC[C@H](C)[C@H](NC(=O)[C@@H](NC(=O)[C@H](CCCCN)NC(=O)[C@H](CCC(N)=O)NC(=O)[C@@H](NC(=O)[C@H](C)NC(=O)[C@H](CCCCN)NC(=O)[C@H](CCCCN)NC(=O)[C@H](CC(C)C)NC(=O)[C@H](CCCNC(=N)N)NC(=O)[C@H](Cc1ccccc1)NC(=O)[C@@H](N)C(C)C)[C@@H](C)CC)C(C)C)C(N)=O [peptide 14] (H-VFRLKKAIQKVI-NH2) | 0.0469 | > 200 µg/mL | 12.5 µg/mL | 0.125 µg/mL | 0.1406 | > 200 µg/mL | 50 µg/mL | > 200 µg/mL | 25 µg/mL | 0.75 µg/mL | 0.1250 | 0.0938 | > 200 µg/mL | 25 µg/mL | 0.25 µg/mL | – | – | – | – | –
CC[C@H](C)[C@H](NC(=O)[C@@H](NC(=O)[C@H](CCCCN)NC(=O)[C@H](CCC(N)=O)NC(=O)[C@@H](NC(=O)[C@H](Cc1c[nH]c2ccccc12)NC(=O)[C@H](CCCCN)NC(=O)[C@H](CCCCN)NC(=O)[C@H](CC(C)C)NC(=O)[C@H](CCCNC(=N)N)NC(=O)[C@H](Cc1ccccc1)NC(=O)[C@@H](N)C(C)C)[C@@H](C)CC)C(C)C)C(N)=O [peptide 6] (H-VFRLKKWIQKVI-NH2) | 0.0781 | 50 µg/mL | 3.125 µg/mL | 0.125 µg/mL | 0.1563 | 25 µg/mL | 3.125 µg/mL | 100 µg/mL | 12.5 µg/mL | 0.188 µg/mL | 0.1406 | 0.0938 | 100 µg/mL | 6.25 µg/mL | 0.25 µg/mL | 200 µg/mL | 12.5 µg/mL (≈ 8.03 µM) | 0.25 µg/mL | – | –
CC[C@H](C)[C@H](NC(=O)[C@@H](NC(=O)[C@H](CCCCN)NC(=O)[C@H](CCC(N)=O)NC(=O)[C@@H](NC(=O)[C@H](Cc1c[nH]c2ccccc12)NC(=O)[C@H](CCCCN)NC(=O)[C@H](CCCCN)NC(=O)[C@H](CC(C)C)NC(=O)[C@H](C)NC(=O)[C@H](Cc1ccccc1)NC(=O)[C@@H](N)C(C)C)[C@@H](C)CC)C(C)C)C(N)=O [peptide 10] (H-VFALKKWIQKVI-NH2) | – | 200 µg/mL | 12.5 µg/mL | 0.125 µg/mL | – | 100 µg/mL | 12.5 µg/mL | > 200 µg/mL | 25 µg/mL | 0.188 µg/mL | 0.0781 | 0.1406 | 100 µg/mL | 12.5 µg/mL | 0.125 µg/mL | – | – | – | 0.0781 | –
CC[C@H](C)[C@H](NC(=O)[C@H](Cc1c[nH]c2ccccc12)NC(=O)[C@H](CCCCN)NC(=O)[C@H](CCCCN)NC(=O)[C@H](CC(C)C)NC(=O)[C@H](CCCNC(=N)N)NC(=O)[C@H](Cc1ccccc1)NC(=O)[C@@H](N)C(C)C)C(=O)N[C@@H](CCC(N)=O)C(=O)N[C@@H](CCCCN)C(=O)N[C@H](C(=O)N[C@@H](C)C(N)=O)C(C)C [peptide 19] (H-VFRLKKWIQKVA-NH2) | – | > 200 µg/mL | 6.25 µg/mL | 0.125 µg/mL | 0.0781 | 100 µg/mL | 6.25 µg/mL | > 200 µg/mL | 25 µg/mL | 0.75 µg/mL | – | – | 200 µg/mL | 12.5 µg/mL | 0.5 µg/mL | – | – | – | – | 0.1250
